Format in all cases: biochemical
Assay [1] concerns the target T1, PDE9A2 (Homo sapiens, UniProt O76083).
T1 construct: purchased Reaction Biology Corporation, Malvern, Pa
Nature of the assay: Phosphodiesterase enzyme screening assay, PDE9A2. The following applies: read-out: Band (PDE9A2 IC50). The method in brief: (§1)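 Compounds were tested on commercial human PDE enzymes using a fluorescent cGMP substrate at 4.0 μM, incubated for one hour at room temperature. Values are means of four wells versus controls.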

Assay [2] has as its target T2, PDE1A (Homo sapiens, UniProt P54750).
T2 construct: purchased Reaction Biology Corporation, Malvern, Pa
Nature of the assay: Phosphodiesterase enzyme screening assay, PDE1A. The method in brief: as §1

The target of assay [3] is T3, PDE1B (Homo sapiens, UniProt Q01064).
T3 construct: purchased Reaction Biology Corporation, Malvern, Pa
Nature of the assay: Phosphodiesterase enzyme screening assay, PDE1B. The method in brief: as §1

The mark [4] stands for this setting: Table 3, 4.0 μM cGMP substrate, 1 hour at R.T.
Where [5] appears, read: ratio of IC50 values, PDE1A versus PDE9A2, value greater than 1 = greater selectivity for PDE9A2.
Where [6] appears, read: ratio of IC50 values, PDE1B versus PDE9A2, value greater than 1 = greater selectivity for PDE9A2.
Setting [7] is: 4.0 μM cGMP substrate, 1 hour at R.T.
Setting [8] is: ratio of IC50 values PDE1A / PDE9A2, value greater than 1 indicates greater selectivity for PDE9A2.
The mark [9] stands for this setting: ratio of IC50 values PDE1B / PDE9A2, value greater than 1 indicates greater selectivity for PDE9A2.
The mark [10] stands for this setting: ratio of IC50 values, PDE1A versus PDE9A2, value greater than 1 indicates greater selectivity for PDE9A2.
Where [11] appears, read: ratio of IC50 values, PDE1B versus PDE9A2, value greater than 1 indicates greater selectivity for PDE9A2.
Where [12] appears, read: Table 1, 10 concentrations, 4.0 μM cGMP substrate, 1 hour at R.T.
Where [13] appears, read: Table 1, ratio of IC50 values, value greater than 1 indicates greater selectivity for PDE9A2.

Like-named read-outs stand apart in the source and are kept apart here.

T1 sequence (O76083 1-533 isoform O76083-2): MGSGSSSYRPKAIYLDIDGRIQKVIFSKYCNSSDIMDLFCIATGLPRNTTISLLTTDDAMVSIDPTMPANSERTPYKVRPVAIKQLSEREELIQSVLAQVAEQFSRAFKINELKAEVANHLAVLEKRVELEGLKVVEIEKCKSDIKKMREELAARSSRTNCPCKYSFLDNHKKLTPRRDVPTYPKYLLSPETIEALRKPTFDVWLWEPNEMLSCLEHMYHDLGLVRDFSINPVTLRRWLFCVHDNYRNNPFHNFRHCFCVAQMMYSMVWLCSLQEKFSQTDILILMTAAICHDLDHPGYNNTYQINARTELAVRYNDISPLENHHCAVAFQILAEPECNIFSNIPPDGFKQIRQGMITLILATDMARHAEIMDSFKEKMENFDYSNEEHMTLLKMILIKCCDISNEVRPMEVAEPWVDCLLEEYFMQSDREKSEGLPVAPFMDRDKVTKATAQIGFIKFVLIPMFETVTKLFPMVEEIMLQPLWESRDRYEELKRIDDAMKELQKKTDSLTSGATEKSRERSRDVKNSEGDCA
T2 sequence (P54750 whole entry): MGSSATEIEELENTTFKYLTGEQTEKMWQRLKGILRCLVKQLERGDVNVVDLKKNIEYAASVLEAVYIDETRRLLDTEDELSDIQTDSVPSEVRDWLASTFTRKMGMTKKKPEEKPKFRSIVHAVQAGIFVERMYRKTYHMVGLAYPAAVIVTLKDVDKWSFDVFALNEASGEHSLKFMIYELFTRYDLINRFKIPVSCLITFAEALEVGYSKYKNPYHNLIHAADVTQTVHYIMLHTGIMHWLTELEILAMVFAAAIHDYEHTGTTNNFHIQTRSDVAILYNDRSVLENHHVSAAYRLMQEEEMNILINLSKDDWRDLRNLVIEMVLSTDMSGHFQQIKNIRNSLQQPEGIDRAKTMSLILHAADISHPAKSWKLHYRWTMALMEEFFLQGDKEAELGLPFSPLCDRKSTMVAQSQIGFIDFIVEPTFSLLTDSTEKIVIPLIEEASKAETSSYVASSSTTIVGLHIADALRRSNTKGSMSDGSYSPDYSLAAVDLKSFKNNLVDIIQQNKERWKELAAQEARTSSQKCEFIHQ
T3 sequence (Q01064 whole entry): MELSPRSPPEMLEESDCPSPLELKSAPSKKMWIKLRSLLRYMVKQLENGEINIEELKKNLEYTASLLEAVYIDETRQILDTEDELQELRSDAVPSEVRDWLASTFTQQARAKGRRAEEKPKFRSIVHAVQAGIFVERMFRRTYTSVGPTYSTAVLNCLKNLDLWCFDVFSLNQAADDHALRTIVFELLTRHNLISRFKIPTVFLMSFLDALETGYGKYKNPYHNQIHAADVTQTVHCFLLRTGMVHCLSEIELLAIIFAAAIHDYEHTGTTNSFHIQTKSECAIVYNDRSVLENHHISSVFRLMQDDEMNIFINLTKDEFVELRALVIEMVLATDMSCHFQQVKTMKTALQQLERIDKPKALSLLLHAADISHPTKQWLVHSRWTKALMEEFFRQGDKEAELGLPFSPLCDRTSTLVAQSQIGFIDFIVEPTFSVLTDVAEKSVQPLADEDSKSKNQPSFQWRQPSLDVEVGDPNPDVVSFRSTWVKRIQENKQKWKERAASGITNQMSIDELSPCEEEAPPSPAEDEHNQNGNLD

For `CC1CN(Cc2ccc3nsnc3c2)CC1c1nn2c(C3CCOCC3)ncc2c(=O)[nH]1` (single isomer, unassigned; (+)) [(+)-2-((3,4-trans)-1-(benzo[c][1,2,5]thiadiazol-5-ylmethyl)-4-methylpyrrolidin-3-yl)-7-(tetrahydro-2H-pyran-4-yl)imidazo[5,1-f][1,2,4]triazin-4(3H)-one], the IC50 (as a rule, the midpoint of a concentration-inhibition curve) in assay [1] (setting [4]) is < 1000 nM. Moreover, the “PDE1A selectivity (versus PDE9A2)” value in assay [2] (setting [5]) worked out at 212. The “PDE1B selectivity (versus PDE9A2)” value in assay [3] (setting [6]) worked out at 473.
For `CC1CN(Cc2ccoc2)CC1c1nn2c(C3CCOCC3)ncc2c(=O)[nH]1` (single isomer, unassigned; (+)) [(+)-2-((3,4-trans)-1-(furan-3-ylmethyl)-4-methylpyrrolidin-3-yl)-7-(tetrahydro-2H-pyran-4-yl)imidazo[5,1-f][1,2,4]triazin-4(3H)-one], in that order: < 1000 nM, 68 and 123.
As to `Cc1cnccc1-c1ncc2c(=O)[nH]c(C3CN(Cc4cn5ccccc5n4)CC3C)nn12` (single isomer, unassigned; (+)) [(+)-2-((3,4-trans)-1-(imidazo[1,2-a]pyridin-2-ylmethyl)-4-methylpyrrolidin-3-yl)-7-(3-methylpyridin-4-yl)imidazo[5,1-f][1,2,4]triazin-4(3H)-one], the IC50 in assay [1] (setting [7]) is < 1000 nM. Also, the “PDE1A selectivity (versus PDE9A2)” value in assay [2] (setting [8]) came to 155. Besides, the “PDE1B selectivity (versus PDE9A2)” value in assay [3] (setting [9]) came out at 149.
Regarding `Cc1ccncc1-c1ncc2c(=O)[nH]c(C3CN(Cc4cn5ccccc5n4)CC3C)nn12` (single isomer, unassigned; (+)) [(+)-2-((3,4-trans)-1-(imidazo[1,2-a]pyridin-2-ylmethyl)-4-methylpyrrolidin-3-yl)-7-(4-methylpyridin-3-yl)imidazo[5,1-f][1,2,4]triazin-4(3H)-one], the IC50 in assay [1] is < 1000 nM. Moreover, the “PDE1A selectivity (versus PDE9A2)” value in assay [2] (setting [10]) was 128. Also, the “PDE1B selectivity (versus PDE9A2)” value in assay [3] (setting [11]) amounted to 230.
The corresponding values for `Cc1ccccc1-c1ncc2c(=O)[nH]c(C3CN(Cc4cn5ccccc5n4)CC3C)nn12` (single isomer, unassigned; (+)) [(+)-2-((3,4-trans)-1-(imidazo[1,2-a]pyridin-2-ylmethyl)-4-methylpyrrolidin-3-yl)-7-(o-tolyl)imidazo[5,1-f][1,2,4]triazin-4(3H)-one] are < 1000 nM, 326 and 661.
In the case of `CCC(CC)c1ncc2c(=O)[nH]c(C3CN(Cc4cn5ccccc5n4)CC3C)nn12` (single isomer, unassigned; (+)) [(+)-2-((3,4-trans)-1-(imidazo[1,2-a]pyridin-2-ylmethyl)-4-methylpyrrolidin-3-yl)-7-(pentan-3-yl)imidazo[5,1-f][1,2,4]triazin-4(3H)-one], the concentration for half-maximal inhibition (IC50) in assay [1] (setting [7]) was < 1000 nM. Moreover, the “PDE1A selectivity (versus PDE9A2)” value in assay [2] (setting [8]) came to 51. In addition, in assay [3] (setting [9]), the “PDE1B selectivity (versus PDE9A2)” value came to 48.
Take `CC1CN(Cc2cn3ccccc3n2)CC1c1nn2c(C3CCOCC3)ncc2c(=O)[nH]1` (single isomer, unassigned; (+)) [(+)-2-((3,4-trans)-1-(imidazo[1,2-a]pyridin-2-ylmethyl)-4-methylpyrrolidin-3-yl)-7-(tetrahydro-2H-pyran-4-yl)imidazo[5,1-f][1,2,4]triazin-4(3H)-one]: the 50% inhibitory concentration (IC50) in assay [1] (setting [12]) was < 1000 nM. For the same compound, the “PDE1A selectivity (versus PDE9A2)” value in assay [2] (setting [13]) was 754. Besides, the “PDE1B selectivity (versus PDE9A2)” value in assay [3] (setting [13]) was determined as 734.
For `CC1CN(Cc2ccc3nccn3n2)CC1c1nn2c(C3CCOCC3)ncc2c(=O)[nH]1` (single isomer, unassigned; (+)) [(+)-2-((3,4-trans)-1-(imidazo[1,2-b]pyridazin-6-ylmethyl)-4-methylpyrrolidin-3-yl)-7-(tetrahydro-2H-pyran-4-yl)imidazo[5,1-f][1,2,4]triazin-4(3H)-one], in that order: < 1000 nM, 232 and 633.
Turning to `CC1CN(Cc2ccc3cnccc3c2)CC1c1nn2c(C3CCOCC3)ncc2c(=O)[nH]1` (single isomer, unassigned; (+)) [(+)-2-((3,4-trans)-1-(isoquinolin-6-ylmethyl)-4-methylpyrrolidin-3-yl)-7-(tetrahydro-2H-pyran-4-yl)imidazo[5,1-f][1,2,4]triazin-4(3H)-one], in assay [1] (setting [12]), the IC50 was < 1000 nM. In assay [2] (setting [13]), the “PDE1A selectivity (versus PDE9A2)” value is given as 145. The “PDE1B selectivity (versus PDE9A2)” value in assay [3] (setting [13]) came to 335.
For `CC1CN(Cc2ccc3ccncc3c2)CC1c1nn2c(C3CCOCC3)ncc2c(=O)[nH]1` (single isomer, unassigned; (+)) [(+)-2-((3,4-trans)-1-(isoquinolin-7-ylmethyl)-4-methylpyrrolidin-3-yl)-7-(tetrahydro-2H-pyran-4-yl) imidazo [5,1-f] [1,2,4] triazin-4(3H)-one], in that order: < 1000 nM, 223 and 893.
Regarding `CC1CN(Cc2ccccc2)CC1c1nn2c(-c3ccccc3F)ncc2c(=O)[nH]1` (single isomer, unassigned; (+)) [(+)-2-((3,4-trans)-1-benzyl-4-methylpyrrolidin-3-yl)-7-(2-fluorophenyl)imidazo[5,1-f][1,2,4]triazin-4(3H)-one], in assay [1] (setting [7]), the IC50 was < 1000 nM. For the same compound, the “PDE1A selectivity (versus PDE9A2)” value in assay [2] (setting [8]) was determined as 76. Also, the “PDE1B selectivity (versus PDE9A2)” value in assay [3] (setting [9]) was 83.
Turning to `CC1CN(Cc2ccccc2)CC1c1nn2c(-c3cccc(F)c3)ncc2c(=O)[nH]1` (single isomer, unassigned; (+)) [(+)-2-((3,4-trans)-1-benzyl-4-methylpyrrolidin-3-yl)-7-(3-fluorophenyl)imidazo[5,1-f][1,2,4]triazin-4(3H)-one], in assay [1], the IC50 is < 1000 nM. In assay [2] (setting [10]), the “PDE1A selectivity (versus PDE9A2)” value is given as 70. Also, in assay [3] (setting [11]), the “PDE1B selectivity (versus PDE9A2)” value stood at 113.
For the compound `Cc1cnccc1-c1ncc2c(=O)[nH]c(C3CN(Cc4ccccc4)CC3C)nn12` (single isomer, unassigned; (+)) [(+)-2-((3,4-trans)-1-benzyl-4-methylpyrrolidin-3-yl)-7-(3-methylpyridin-4-yl) imidazo [5,1-f] [1,2,4] triazin-4 (3H)-one], the IC50 in assay [1] (setting [7]) is < 1000 nM. Further, the “PDE1A selectivity (versus PDE9A2)” value in assay [2] (setting [8]) is 167. Besides, in assay [3] (setting [9]), the “PDE1B selectivity (versus PDE9A2)” value was found to be 144.
As for `CC1CN(Cc2ccccc2)CC1c1nn2c(C3CCC(F)(F)CC3)ncc2c(=O)[nH]1` (single isomer, unassigned; (+)) [(+)-2-((3,4-trans)-1-benzyl-4-methylpyrrolidin-3-yl)-7-(4,4-difluorocyclohexyl)imidazo[5,1-f][1,2,4]triazin-4(3H)-one], the IC50 in assay [1] (setting [12]) is < 1000 nM. The “PDE1A selectivity (versus PDE9A2)” value in assay [2] (setting [13]) stood at 309. The “PDE1B selectivity (versus PDE9A2)” value in assay [3] (setting [13]) worked out at 496.
For `Cc1cc(F)c(F)cc1-c1ncc2c(=O)[nH]c(C3CN(Cc4ccccc4)CC3C)nn12` (single isomer, unassigned; (+)) [(+)-2-((3,4-trans)-1-benzyl-4-methylpyrrolidin-3-yl)-7-(4,5-difluoro-2-methylphenyl)imidazo[5,1-f][1,2,4]triazin-4(3H)-one], in assay [1], the IC50 was < 1000 nM. Also, the “PDE1A selectivity (versus PDE9A2)” value in assay [2] (setting [10]) was found to be 174. Besides, the “PDE1B selectivity (versus PDE9A2)” value in assay [3] (setting [11]) is on record as 143.
The corresponding values for `CC1CN(Cc2ccccc2)CC1c1nn2c(-c3ccc(F)cc3)ncc2c(=O)[nH]1` (single isomer, unassigned; (+)) [(+)-2-((3,4-trans)-1-benzyl-4-methylpyrrolidin-3-yl)-7-(4-fluorophenyl)imidazo[5,1-f][1,2,4]triazin-4(3H)-one] are < 1000 nM, 220 and 286.
Take `Cc1ccncc1-c1ncc2c(=O)[nH]c(C3CN(Cc4ccccc4)CC3C)nn12` (single isomer, unassigned; (+)) [(+)-2-((3,4-trans)-1-benzyl-4-methylpyrrolidin-3-yl)-7-(4-methylpyridin-3-yl)imidazo[5,1-f][1,2,4]triazin-4(3H)-one]: in assay [1], the IC50 was < 1000 nM. Further, in assay [2] (setting [10]), the “PDE1A selectivity (versus PDE9A2)” value turned out to be 148. In assay [3] (setting [11]), the “PDE1B selectivity (versus PDE9A2)” value is reported as 379.
For `Cc1ccccc1-c1ncc2c(=O)[nH]c(C3CN(Cc4ccccc4)CC3C)nn12` (single isomer, unassigned; (+)) [(+)-2-((3,4-trans)-1-benzyl-4-methylpyrrolidin-3-yl)-7-(o-tolyl)imidazo[5,1-f][1,2,4]triazin-4(3H)-one], the IC50 in assay [1] was < 1000 nM. Also, the “PDE1A selectivity (versus PDE9A2)” value in assay [2] (setting [10]) was 461. Besides, the “PDE1B selectivity (versus PDE9A2)” value in assay [3] (setting [11]) is 531.
`CCC(CC)c1ncc2c(=O)[nH]c(C3CN(Cc4ccccc4)CC3C)nn12` (single isomer, unassigned; (+)) [(+)-2-((3,4-trans)-1-benzyl-4-methylpyrrolidin-3-yl)-7-(pentan-3-yl)imidazo[5,1-f][1,2,4]triazin-4(3H)-one]: the IC50 in assay [1] is < 1000 nM. Further, the “PDE1A selectivity (versus PDE9A2)” value in assay [2] (setting [10]) stood at 175. Besides, the “PDE1B selectivity (versus PDE9A2)” value in assay [3] (setting [11]) is given as 86.

The values are drawn from patent US9969742B2, “Imidazotriazinone compounds” (Ironwood Pharmaceuticals, Inc., priority 2012, dated 2018).
